Measured values published in patent US4546176A, “7-Carboxymethoxyphenylacetamido-3-cephem derivatives and antibacterial preparations containing the same” (Eisai Co., Ltd., priority 1982, dated 1985).
Converted amounts (≈) assume the structure as drawn.

Legend:
[1] = Solubility in water; assay type: physicochemical; settings: in distilled water at 25° C.
[2] = test system: Kleb. pneumoniae EK-6; experiment: Antibacterial activities (MIC), Kleb. pneumoniae EK-6; assay type: cell-based; settings: Klebsiella pneumoniae, EK6
Source text: (§1) (1) Antibacterial activities (MIC):

[3] = test system: Proteus morganii EP-14; experiment: Antibacterial activities (MIC), Proteus morganii EP-14; assay type: cell-based; settings: Morganella morganii, EP14
Source text: as §1

[4] = test system: Escher. coli NIHJ; experiment: Antibacterial activities (MIC), Escher. coli NIHJ; assay type: cell-based; settings: Escherichia coli
Source text: as §1

[5] = test system: Pseud. aeruginosa EP-01; experiment: Antibacterial activities (MIC), Pseud. aeruginosa EP-01; assay type: cell-based; settings: Pseudomonas aeruginosa, EP01
Source text: as §1

[6] = test system: Staph. aureus 209-P; experiment: Antibacterial activities (MIC), Staph. aureus 209-P; assay type: cell-based; settings: Staphylococcus aureus
Source text: as §1

[7] = test system: Ser. marcescens ES-75; experiment: Antibacterial activities (MIC), Ser. marcescens ES-75; assay type: cell-based; settings: Serratia marcescens, ES75
Source text: as §1

[8] = Urinary excretion rate in mice; assay type: in vivo, ICR male mice; settings: mouse, sc, 20 mg/kg subcutaneous, urine up to 6 hours, bioassay
Description: ICR male mice (body weight: 20-30 g) were used. Each compound was dissolved in an M/15 phosphate buffer (pH 7.0) and administered in an amount of 20 mg/kg by the subcutaneous route. Urine was collected up to 6 hours after the administration. The concentration of the compound was determined by the bioassey technique (the agar-well method) using Pseudomonas aeruginosa as a test microorganism. On the basis of the thus-determined concentration, its excreted amount was obtained. The urinary excretion rate was then calculated from the excreted amount based on the amount administered.

CC(=O)OCC1=C(C(=O)O)N2C(=O)[C@@H](NC(=O)[C@H](NC(=O)c3coc4cc(O)c(O)cc4c3=O)c3ccc(OCC(=O)O)cc3)[C@H]2SC1 [Example 2] gave a solubility [1] of at least 200 mg/mL.
Molecule Cn1nnnc1SCC1=C(C(=O)O)N2C(=O)[C@@H](NC(=O)[C@H](NC(=O)c3coc4cc(O)c(O)cc4c3=O)c3ccc(OCC(=O)O)cc3)[C@H]2SC1 [Example 4, Disodium 7β-[D-2-(4-carboxymethoxyphenyl)-2-(6,7-dihydroxy-4-oxo-4H-1-benzopyran-3-carboxamido)-acetamido]-3-(1-methyl-5-tetrazolyl)thiomethyl-3-cephem-4-carboxylate] has an MIC [2] of at most 0.05 µg/mL, an MIC [3] of 0.8 µg/mL and an MIC [4] of 0.8 µg/mL. For the same molecule, the MIC [5] was at most 0.05 µg/mL, the MIC [6] was 6.25 µg/mL and the solubility [1] was at least 200 mg/mL. For the same molecule, the MIC [7] was 0.2 µg/mL.
Molecule O=C(O)COc1ccc([C@@H](NC(=O)c2coc3cc(O)c(O)cc3c2=O)C(=O)N[C@@H]2C(=O)N3C(C(=O)O)=C(CSc4nnnn4CC(=O)O)CS[C@H]23)cc1 [Example 8, Trisodium 7β-[D-2-(4-carboxymethoxyphenyl)-2-(6,7-dihydroxy-4-oxo-4H-1-benzopyran-3-carboxamido)-acetamido]-3-(1-carboxymethyl-5-tetrazolyl)thiomethyl-3-cephem-4-carboxylate] has an MIC [2] of at most 0.05 µg/mL, an MIC [3] of 1.56 µg/mL and an MIC [4] of 0.8 µg/mL. For the same molecule, the MIC [5] was 0.1 µg/mL, the MIC [6] was 50 µg/mL and the solubility [1] was at least 300 mg/mL. The dose excreted at 6 h [8] was 20% and the MIC [7] was 0.2 µg/mL.
In the case of CC(=O)OCC1=C(C(=O)O)N2C(=O)[C@@H](NC(=O)[C@H](NC(=O)c3coc4c(OC(C)=O)c(OC(C)=O)ccc4c3=O)c3ccc(OCC(=O)O)cc3)[C@H]2SC1 [Example 17, 7β-[D-2-(4-Carboxymethoxyphenyl)-2-(7,8-diacetoxy-4-oxo-4H-1-benzopyran-3-carboxamido)acetamido]-3-acetoxymethyl-3-cephem-4-carboxylic acid], the MIC [2] is reported as at most 0.05 µg/mL, the MIC [3] is reported as 12.5 µg/mL (≈ 16.3 µM) and the MIC [4] is reported as 0.8 µg/mL (≈ 1.04 µM). For the same molecule, the MIC [5] was 0.8 µg/mL (≈ 1.04 µM), the MIC [6] was 50 µg/mL (≈ 65.1 µM) and the MIC [7] was 1.56 µg/mL (≈ 2.03 µM).
With O=C(O)COc1ccc([C@@H](NC(=O)c2coc3c(O)c(O)ccc3c2=O)C(=O)N[C@@H]2C(=O)N3C(C(=O)O)=C(CSc4nnnn4CC(=O)O)CS[C@H]23)cc1 [Example 20, Trisodium 7β-[D-2-(4-carboxymethoxyphenyl)-2-(7,8-dihydroxy-4-oxo-4H-1-benzopyran-3-carboxamido)-acetamido]-3-(1-carboxymethyl-5-tetrazolyl)thiomethyl-3-cephem-4-carboxylate] the MIC [2] was 0.1 µg/mL, the MIC [3] was 6.25 µg/mL and the MIC [4] was 0.8 µg/mL. The MIC [5] was 0.8 µg/mL, the MIC [6] was 100 µg/mL and the dose excreted at 6 h [8] was 16%. The MIC [7] was 0.8 µg/mL.
With CC(=O)Oc1cc2oc(C)c(C(=O)N[C@@H](C(=O)N[C@@H]3C(=O)N4C(C(=O)O)=C(CSc5nnnn5CC(=O)O)CS[C@H]34)c3ccc(OCC(=O)O)cc3)c(=O)c2cc1OC(C)=O [Example 22, 7β-[D-2-(4-Carboxymethoxyphenyl)-2-(6,7-diacetoxy-2-methyl-4-oxo-4H-1-benzopyran-3-carboxamido)-acetamido]-3-(1-carboxymethyl-5-tetrazolyl)thiomethyl-3-cephem-4-carboxylic acid] the MIC [2] was at most 0.05 µg/mL, the MIC [3] was 3.13 µg/mL (≈ 3.55 µM) and the MIC [4] was 0.2 µg/mL (≈ 0.227 µM). For the same molecule, the MIC [5] was 0.2 µg/mL (≈ 0.227 µM), the MIC [6] was 100 µg/mL (≈ 113 µM) and the MIC [7] was 0.1 µg/mL (≈ 0.113 µM).
Molecule CC(=O)Oc1ccc2c(=O)c(C(=O)N[C@@H](C(=O)N[C@@H]3C(=O)N4C(C(=O)O)=C(CSc5nnnn5CC(=O)O)CS[C@H]34)c3ccc(OCC(=O)O)cc3)c(C)oc2c1OC(C)=O [Example 23, 7β-[D-2-(4-Carboxymethoxyphenyl)-2-(7,8-diacetoxy-2-methyl-4-oxo-4H-1-benzopyran-3-carboxamido)-acetamido]-3-(1-carboxymethyl-5-tetrazolyl)thiomethyl-3-cephem-4-carboxylic acid] has an MIC [2] of at most 0.05 µg/mL, an MIC [3] of 6.25 µg/mL (≈ 7.09 µM) and an MIC [4] of 0.4 µg/mL (≈ 0.454 µM). The MIC [5] was 0.8 µg/mL (≈ 0.907 µM), the MIC [6] was 100 µg/mL (≈ 113 µM) and the MIC [7] was 0.8 µg/mL (≈ 0.907 µM).
In the case of Cc1oc2c(O)c(O)ccc2c(=O)c1C(=O)N[C@@H](C(=O)N[C@@H]1C(=O)N2C(C(=O)O)=C(CSc3nnnn3CC(=O)O)CS[C@H]12)c1ccc(OCC(=O)O)cc1 [Example 27, Trisodium 7β-[D-2-(4-carboxymethoxyphenyl)-2-(7,8-dihydroxy-2-methyl-4-oxo-4H-1-benzopyran-3-carboxamido)acetamido]-3-(1-carboxymethyl-5-tetrazolyl)-thiomethyl-3-cephem-4-carboxylate], the MIC [2] is reported as at most 0.05 µg/mL, the MIC [3] is reported as 6.25 µg/mL and the MIC [4] is reported as 0.4 µg/mL. It also gave an MIC [5] of 0.8 µg/mL, an MIC [6] of 100 µg/mL and a dose excreted at 6 h [8] of 30%. The MIC [7] was 0.8 µg/mL.
CC(=O)OCC1=C(C(=O)O)N2C(=O)[C@@H](NC(=O)[C@H](NC(=O)c3c(C)oc4cc(O)c(O)cc4c3=O)c3ccc(OCC(=O)O)cc3)[C@H]2SC1 [Example 29, Disodium 7β-[D-2-(4-carboxymethoxyphenyl)-2-(6,7-dihydroxy-2-methyl-4-oxo-4H-1-benzopyran-3-carboxamido)acetamido]-3-acetoxymethyl-3-cephem-4-carboxylate] showed an MIC [2] of at most 0.05 µg/mL, an MIC [3] of 12.5 µg/mL and an MIC [4] of 0.4 µg/mL. For the same molecule, the MIC [5] was 0.2 µg/mL, the MIC [6] was 50 µg/mL and the MIC [7] was 0.4 µg/mL.
In the case of CCn1cc(C(=O)N[C@@H](C(=O)N[C@@H]2C(=O)N3C(C(=O)O)=C(COC(C)=O)CS[C@H]23)c2ccc(OCC(=O)O)cc2)c(=O)c2cc(O)c(O)cc21 [Example 35, Disodium 7β-[D-2-(4-carboxymethoxyphenyl)-2-(6,7-dihydroxy-1-ethyl-1,4-dihydro-4-oxoquinoline-3-carboxamido)acetamido]-3-acetoxymethyl-3-cephem-4-carboxylate], the MIC [2] is reported as at most 0.05 µg/mL, the MIC [3] is reported as 12.5 µg/mL and the MIC [4] is reported as 0.8 µg/mL. It also gave an MIC [5] of 0.2 µg/mL, an MIC [6] of 50 µg/mL and an MIC [7] of 1.56 µg/mL.
Molecule CCOC(=O)Oc1cc2oc(C)c(C(=O)N[C@@H](C(=O)N[C@@H]3C(=O)N4C(C(=O)O)=C(COC(C)=O)CS[C@H]34)c3ccc(OCC(=O)O)cc3)c(=O)c2cc1OC(=O)OCC [Example 36] has an MIC [2] of at most 0.05 µg/mL, an MIC [3] of 12.5 µg/mL (≈ 14.8 µM) and an MIC [4] of 0.8 µg/mL (≈ 0.95 µM). For the same molecule, the MIC [5] was 0.1 µg/mL (≈ 0.119 µM), the MIC [6] was 25 µg/mL (≈ 29.7 µM) and the MIC [7] was 0.8 µg/mL (≈ 0.95 µM).
Cc1oc2cc(O)c(O)cc2c(=O)c1C(=O)N[C@@H](C(=O)N[C@@H]1C(=O)N2C(C(=O)[O-])=C(C[n+]3ccccc3)CS[C@H]12)c1ccc(OCC(=O)O)cc1 [Example 40, Sodium 7β-[D-2-(4-carboxymethoxyphenyl)-2-(6,7-dihydroxy-2-methyl-4-oxo-4H-1-benzopyran-3-carboxamido)acetamido]-3-pyridiniummethyl-3-cephem-4-carboxylate] gave an MIC [2] of 0.1 µg/mL, an MIC [3] of 12.5 µg/mL and an MIC [4] of 0.8 µg/mL. The MIC [5] was 0.2 µg/mL, the MIC [6] was 100 µg/mL and the solubility [1] was at least 300 mg/mL. The dose excreted at 6 h [8] was 39% and the MIC [7] was 0.6 µg/mL.
With Cc1oc2cc(O)c(O)cc2c(=O)c1C(=O)N[C@@H](C(=O)N[C@@H]1C(=O)N2C(C(=O)[O-])=C(C[n+]3ccc(C(N)=O)cc3)CS[C@H]12)c1ccc(OCC(=O)O)cc1 [Example 41, Sodium 7β-[D-2-(4-carboxymethoxyphenyl)-2-(6,7-dihydroxy-2-methyl-4-oxo-4H-1-benzopyran-3-carboxamido)acetamido]-3-(4-carbamoylpyridinium)-methyl-3-cephem-4-carboxylate] the MIC [2] was at most 0.05 µg/mL, the MIC [3] was 6.25 µg/mL and the MIC [4] was 0.4 µg/mL. It also gave an MIC [5] of 0.2 µg/mL, an MIC [6] of 50 µg/mL and a solubility [1] of at least 300 mg/mL. For the same molecule, the dose excreted at 6 h [8] was 74% and the MIC [7] was 0.4 µg/mL.
Molecule O=C(O)COc1ccc([C@@H](NC(=O)c2coc3cc(O)c(O)cc3c2=O)C(=O)N[C@@H]2C(=O)N3C(C(=O)[O-])=C(C[n+]4ccccc4)CS[C@H]23)cc1 [Example 44, Sodium 7β-[D-2-(4-carboxymethoxyphenyl)-2-(6,7-dihydroxy-4-oxo-4H-1-benzopyran-3-carboxamido)-acetamido]-3-pyridiniummethyl-3-cephem-4-carboxylate] has an MIC [2] of at most 0.05 µg/mL, an MIC [3] of 25 µg/mL and an MIC [4] of 0.8 µg/mL. For the same molecule, the MIC [5] was 0.1 µg/mL, the MIC [6] was 25 µg/mL and the solubility [1] was at least 300 mg/mL. For the same molecule, the dose excreted at 6 h [8] was 40% and the MIC [7] was 0.8 µg/mL.
CO[C@@]1(NC(=O)[C@H](NC(=O)c2c(C)oc3cc(O)c(O)cc3c2=O)c2ccc(OCC(=O)O)cc2)C(=O)N2C(C(=O)[O-])=C(C[n+]3ccc(C(N)=O)cc3)CS[C@@H]21 [Example 49, 7β-[D-2-(4-Carboxymethoxyphenyl)-2-(6,7-dihydroxy-2-methyl-4-oxo-4H-1-benzopyran-3-carboxamido)-acetamido]-7α-methoxy-3-(4-carbamoylpyridinium)-methyl-3-cephem-4-carboxylate] showed a dose excreted at 6 h [8] of 35%.
Molecule CC(=O)Oc1cc2oc(C)c(C(=O)N[C@@H](C(=O)N[C@@H]3C(=O)N4C(C(=O)[O-])=C(C[n+]5ccc(C(N)=O)cc5)CS[C@H]34)c3ccc(OCC(=O)O)cc3)c(=O)c2cc1OC(C)=O [Example 56, 7β-[D-2-(4-Carboxymethoxyphenyl)-2-(6,7-diacetoxy-2-methyl-4-oxo-4H-1-benzopyran-3-carboxamido)acetamido]-3-(4-carbamoylpyridinium)methyl-3-cephem-4-carboxylate] has an MIC [2] of at most 0.05 µg/mL, an MIC [3] of 6.25 µg/mL (≈ 7.41 µM) and an MIC [4] of 0.8 µg/mL (≈ 0.948 µM). For the same molecule, the MIC [5] was 0.2 µg/mL (≈ 0.237 µM), the MIC [6] was 25 µg/mL (≈ 29.6 µM) and the MIC [7] was 0.8 µg/mL (≈ 0.948 µM).
